Data on 24 compounds can be found in patent US20250073358A1, “AROMATIC VINYL COMPOUND, METAL COMPLEX THEREOF, AND PREPARATION METHOD THEREFOR AND USE THEREOF” (SHANGHAI MAXINOVEL PHARMACEUTICALS CO., LTD., priority 2021, published 2025).

SMILES strings stand for the structures. pIC50: −log10 of the molar value.

One assay deals with PD-1/PD-L1 (Homo sapiens (Human), UniProt Q9NZQ7). As to the kind of experiment: Homogenouse Time-Resolved Fluorescence (HTRF) binding assay, PD-1/PD-L1.
Chain of PD-1/PD-L1 (Q9NZQ7 19-238): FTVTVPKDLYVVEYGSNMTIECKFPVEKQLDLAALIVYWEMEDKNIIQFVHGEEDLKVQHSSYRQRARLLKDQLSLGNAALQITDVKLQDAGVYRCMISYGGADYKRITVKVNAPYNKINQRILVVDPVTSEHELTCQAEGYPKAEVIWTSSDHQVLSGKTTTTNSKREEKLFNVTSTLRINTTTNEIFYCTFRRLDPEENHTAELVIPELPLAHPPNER
Conditions: not given
The protocol: Homogenouse Time-Resolved Fluorescence (HTRF) binding assay was used to detect the binding ability of the compound of the present disclosure to PD-1/PD-L1.
The purchased kit (CisBio, #64CUS000C-1) contains reagents required for experiments such as PD-1, PD-L1, anti-tag1-Eu, Anti-tag2-XL665, Dilute Buffer, and Detection Buffer.
• 1. The compound was configured with 100% DMSO into 10 concentrations with a concentration gradient of 3 times. • 2. The DMSO solution of the compound was added to Dilute Buffer solution, and the mixture was mixed well and transferred to a 96-well plate. • 3. PD-L1 was diluted with Dilute Buffer solution and then added to the above 96-well plate. • 4. PD-1 was diluted with Dilute Buffer solution and then added to the above 96-well plate, and incubated at room temperature for 30 minutes. • 5. One part of anti-tag1-Eu and one part of Anti-tag2-XL665 were added to Detection Buffer solution, and the mixture was mixed well and transferred to the above 96-well plate. • 6. The mixture in the 96-well plate was incubated at room temperature for 1 to 24 hours. • 7. The HTRF values were read with Envision.
On the technique in general: Time-resolved FRET reads energy transfer from a long-lived donor to a nearby acceptor.
As to `Cc1ccc(CCCC(=O)NCCCC[C@H](NC(=O)CN2CCN(CC(=O)O)CCN(CC(=O)O)CCN(CC(=O)O)CC2)C(=O)NCCCCOc2cc(/C=C/c3cccc(-c4ccccc4)c3C)c(C(F)(F)F)cc2CN2CCCC[C@H]2C(=O)O)cc1` [Compound 12], the pIC50 (in general, −log10 of the IC50, conventionally taken in molar units) was 7.49.
In the case of `Cc1c(/C=C/c2cc(OCCCCCCNC(=O)CN3CCN(CC(=O)O)CCN(CC(=O)O)CCN(CC(=O)O)CC3)c(CN3CCCC[C@H]3C(=O)O)cc2C(F)(F)F)cccc1-c1ccccc1` [Compound 23], the pIC50 was 9.08.
Consider `Cc1c(/C=C/c2cc(OCCOCCN3CCN(CC(=O)O)CCN(CC(=O)O)CCN(CC(=O)O)CC3)c(CN3CCCC[C@H]3C(=O)O)cc2C(F)(F)F)cccc1-c1ccccc1` [Compound 6], for which the pIC50 was 8.58.
`Cc1cc(CN2CCCC[C@H]2C(=O)O)c(OCCOC(=O)CN2CCN(CC(=O)[O-])CCN(CC(=O)[O-])CCN(CC(=O)[O-])CC2)cc1/C=C/c1cccc(-c2ccccc2)c1C#N.[Lu+3]` [Compound 15] gave a pIC50 of 8.27.
Same read-out and setting: the same measure for `Cc1c(/C=C/c2cc(OCCNC(=O)C3CCC(CNC(=O)CN4CCN(CC(=O)O)CCN(CC(=O)O)CCN(CC(=O)O)CC4)CC3)c(CN3CCCC[C@H]3C(=O)O)cc2C(F)(F)F)cccc1-c1ccccc1` (stereo partly shown) [Compound 9]: 8.97; for `Cc1c(/C=C/c2cc(OCC3CCN(C(=O)CN4CCN(CC(=O)O)CCN(CC(=O)O)CCN(CC(=O)O)CC4)CC3)c(CN3CCCC[C@H]3C(=O)O)cc2C(F)(F)F)cccc1-c1ccccc1` [Compound 19]: 9.06.
In turn, `Cc1ccc(CCCC(=O)NCCCC[C@H](NC(=O)CN2CCN(CC(=O)O)CCN(CC(=O)O)CCN(CC(=O)O)CC2)C(=O)NCCCCCCOc2cc(/C=C/c3cccc(-c4ccccc4)c3C)c(C(F)(F)F)cc2CN2CCCC[C@H]2C(=O)O)cc1` [Compound 26] showed a pIC50 of 7.48.
In turn, `Cc1ccc(CCCC(=O)NCCCC[C@H](NC(=O)CN2CCN(CC(=O)O)CCN(CC(=O)O)CCN(CC(=O)O)CC2)C(=O)NCC2CCC(C(=O)NCCOc3cc(/C=C/c4cccc(-c5ccccc5)c4C)c(C(F)(F)F)cc3CN3CCCC[C@H]3C(=O)O)CC2)cc1` (stereo partly shown) [Compound 21] had a negative logarithm of the IC50 (pIC50) of 8.43.
Compound `Cc1ccc(CCCC(=O)NCCCC[C@H](NC(=O)CN2CCN(CC(=O)O)CCN(CC(=O)O)CCN(CC(=O)O)CC2)C(=O)NCCOc2cc(/C=C/c3cccc(-c4ccccc4)c3C)c(C(F)(F)F)cc2CN2CCCC[C@H]2C(=O)O)cc1` [Compound 10] gave a pIC50 of 6.77.
Regarding `Cc1c(/C=C/c2cc(OCCNC(=O)C3CCN(C(=O)CN4CCN(CC(=O)O)CCN(CC(=O)O)CCN(CC(=O)O)CC4)CC3)c(CN3CCCC[C@H]3C(=O)O)cc2C(F)(F)F)cccc1-c1ccccc1` [Compound 18], the pIC50 is 9.05.
`Cc1c(/C=C/c2cc(OCCOCCN3CCN(CC(=O)O)CCN(CC(=O)O)CCN(CC(=O)O)CC3)c(CN3CCCC[C@@H]3C(=O)O)cc2C(F)(F)F)cccc1-c1ccccc1` [Compound 69] showed a pIC50 of 7.60.
`Cc1c(/C=C/c2cc(OCCOCCNC(=O)CN3CCN(CC(=O)O)CCN(CC(=O)O)CCN(CC(=O)O)CC3)c(CN3CCCC[C@H]3C(=O)O)cc2C(F)(F)F)cccc1-c1ccccc1` [Compound 31] showed a pIC50 of 9.22.
`Cc1c(/C=C/c2cc(OCCOCCN3CCN(CC(=O)O)CCN(CC(=O)O)CCN(CC(=O)O)CC3)c(CN3CCCC[C@H]3C(=O)O)cc2C(F)(F)F)cccc1-c1ccccc1` [Compound 2] gave a pIC50 of 8.89.
`N#Cc1c(-c2ccccc2)ccnc1/C=C/c1cc(OCC2CCN(C(=O)CN3CCN(CC(=O)O)CCN(CC(=O)O)CC3)CC2)c(CN2CCCC[C@H]2C(=O)O)cc1C(F)(F)F` [Compound 59]: the pIC50 was 8.26.
The compound `Cc1c(/C=C/c2cc(OCCNC(=O)CN3CCN(CC(=O)O)CCN(CC(=O)O)CCN(CC(=O)O)CC3)c(CN3CCCC[C@H]3C(=O)O)cc2C(F)(F)F)cccc1-c1ccccc1` [Compound 3, (2S)-1-({4-[(1E)-2-(2-Methyl-3-phenylphenyl)vinyl]-5-(trifluoromethyl)-2-{[2-({2-[4,7,10-tris(carboxymethyl)-1,4,7,10-tetraazacyclododecan-1-yl]acetyl}amino)ethyl]oxy}phenyl}methyl)hexahydropyridine-2-carboxylic acid] had a pIC50 of 8.50.
The same measure, in the same setting: the value for `Cc1c(/C=C/c2cc(OCCCCNC(=O)CN3CCN(CC(=O)O)CCN(CC(=O)O)CCN(CC(=O)O)CC3)c(CN3CCCC[C@H]3C(=O)O)cc2C(F)(F)F)cccc1-c1ccccc1` [Compound 4, (2S)-1-({4-[(1E)-2-(2-Methyl-3-phenylphenyl)vinyl]-5-(trifluoromethyl)-2-{[4-({2-[4,7,10-tris(carboxymethyl)-1,4,7,10-tetraazacyclododecan-1-yl]acetyl}amino)butyl]oxy}phenyl}methyl)hexahydropyridine-2-carboxylic acid] was 9.05; that for `Cc1ccc(CCCC(=O)NCCCC[C@H](NC(=O)CN2CCN(CC(=O)O)CCN(CC(=O)O)CCN(CC(=O)O)CC2)C(=O)NCCOCCOc2cc(/C=C/c3cccc(-c4ccccc4)c3C)c(C(F)(F)F)cc2CN2CCCC[C@H]2C(=O)O)cc1` [Compound 30] was 8.04; that for `Cc1cc(CN2CCCC[C@H]2C(=O)O)c(OCCCCCN2CCN(CC(=O)O)CCN(CC(=O)O)CCN(CC(=O)O)CC2)cc1/C=C/c1cccc(-c2ccccc2)c1C` [Compound 71] was 7.88.
In turn, `Cc1ccc(CCCC(=O)NCCCC[C@H](NC(=O)CN2CCN(CC(=O)O)CCN(CC(=O)O)CCN(CC(=O)O)CC2)C(=O)NCCCCCCOc2cc(/C=C/c3cccc(-c4ccccc4)c3C)c(C(F)(F)F)cc2CN2CCCC[C@H]2C(=O)O)cc1` [Compound 25] gave a pIC50 of 7.79.
Take `N#Cc1c(-c2ccccc2)ccnc1/C=C/c1cc(OCCCCCN2CCN(CC(=O)O)CCN(CC(=O)O)CC2)c(CN2CCCC[C@H]2C(=O)O)cc1C(F)(F)F` [Compound 57]: the negative logarithm of the IC50 (pIC50) is 8.32.
Take `Cc1c(/C=C/c2cc(OCCCCCNC(=O)CN3CCN(CC(=O)O)CCN(CC(=O)O)CCN(CC(=O)O)CC3)c(CN3CCCC[C@H]3C(=O)O)cc2C(F)(F)F)cccc1-c1ccccc1` [Compound 16]: the pIC50 is 8.85.

Another assay relates to tumor. As to the kind of experiment: Inhibitory effect on tumor in tumor-bearing mice. The note with it: tail vein injection, 45 MBq per mouse, compared with the control group (PBS). The assay is classed as in vivo, C57/BL6 mice. The text has this: • 1. Inhibitory effect of compound 78 on tumor • 1.1 Experimental animal information: tumor-bearing C57/BL6 mice; SPF grade; weight range: 17-20 g; Shanghai Qi'up Biomedical Technology Co., Ltd. • 1.2 Experimental process
Ten tumor-bearing mice with tumor volumes of 10-100 mm^3 were systematically and randomly divided into 2 groups according to tumor size, with 5 mice in each group, corresponding to PBS and compound 78 respectively. After anesthesia with isoflurane, tumor-bearing mice were injected into the tail vein with compound 78 with 45 MBq (approximately 1.2 mCi) per mouse and a volume of 0.2 mL. After administration, the tumor size and weight of the animals were measured periodically, and the tumor growth curve was drawn to understand the inhibitory effect of the drug on tumor.
In the case of `Cc1ccc(CCCC(=O)NCCCC[C@H](NC(=O)CN2CCN(CC(=O)O)CCN(CC(=O)O)CCN(CC(=O)O)CC2)C(=O)NCCCCOc2cc(/C=C/c3cccc(-c4ccccc4)c3C)c(C(F)(F)F)cc2CN2CCCC[C@H]2C(=O)O)cc1` [Compound 12], the “inhibition of tumor growth” value was “very good therapeutic effects on inhibiting tumor growth”.
As to `Cc1cc(CN2CCCC[C@H]2C(=O)O)c(OCCOC(=O)CN2CCN(CC(=O)[O-])CCN(CC(=O)[O-])CCN(CC(=O)[O-])CC2)cc1/C=C/c1cccc(-c2ccccc2)c1C#N.[177Lu+3]` [Compound 76], the “inhibition of tumor growth” value was “very good therapeutic effects on inhibiting tumor growth”.
As to `Cc1c(/C=C/c2cc(OCCOCCN3CCN(CC(=O)O)CCN(CC(=O)O)CCN(CC(=O)O)CC3)c(CN3CCCC[C@H]3C(=O)O)cc2C(F)(F)F)cccc1-c1ccccc1` [Compound 6], the “inhibition of tumor growth” value is recorded as “very good therapeutic effects on inhibiting tumor growth”.
`Cc1cc(CN2CCCC[C@H]2C(=O)O)c(OCCOC(=O)CN2CCN(CC(=O)[O-])CCN(CC(=O)[O-])CCN(CC(=O)[O-])CC2)cc1/C=C/c1cccc(-c2ccccc2)c1C#N.[Lu+3]` [Compound 15]: the “inhibition of tumor growth” value is given as “very good therapeutic effects on inhibiting tumor growth”.
The same measure, in the same setting: the same measure for `Cc1ccc(CCCC(=O)NCCCC[C@H](NC(=O)CN2CCN(CC(=O)O)CCN(CC(=O)O)CCN(CC(=O)O)CC2)C(=O)NCCCCCCOc2cc(/C=C/c3cccc(-c4ccccc4)c3C)c(C(F)(F)F)cc2CN2CCCC[C@H]2C(=O)O)cc1` [Compound 26]: “very good therapeutic effects on inhibiting tumor growth”; for `N#Cc1c(-c2ccccc2)ccnc1/C=C/c1cc(OCC2CCN(C(=O)CN3CCN(CC(=O)[O-])CCN(CC(=O)[O-])CCN(CC(=O)[O-])CC3)CC2)c(CN2CCCC[C@H]2C(=O)O)cc1C(F)(F)F.[Lu+3]` [Compound 44]: “very good therapeutic effects on inhibiting tumor growth”.
Turning to `Cc1c(/C=C/c2cc(OCCOCCN3CCN(CC(=O)[O-])CCN(CC(=O)[O-])CCN(CC(=O)[O-])CC3)c(CN3CCCC[C@H]3C(=O)O)cc2C(F)(F)F)cccc1-c1ccccc1.[177Lu+3]` [Compound 77], the “inhibition of tumor growth” value is reported as “very good therapeutic effects on inhibiting tumor growth”.
